COc1ccc(C(=O)O)cc1OC
Settings	solubility (mole fraction)
in 2-butanone, 278.95 K	0.0068
in 2-butanone, 283.15 K	0.0077
in 2-butanone, 287.95 K	0.0089
in 2-butanone, 293.32 K	0.0104
in 2-butanone, 298.13 K	0.012
in 2-butanone, 303.15 K	0.014
in 2-butanone, 308.37 K	0.0162
in 2-butanone, 313.05 K	0.0184
in 2-butanone, 318.15 K	0.0212
in 2-butanone, 323.49 K	0.0246
in ethanol, 278.15 K	0.0035
in ethanol, 282.93 K	0.0042
in ethanol, 288.21 K	0.0051
in ethanol, 293.08 K	0.0062
in ethanol, 298 K	0.0074
in ethanol, 303.33 K	0.0093
in ethanol, 307.9 K	0.011
in ethanol, 313.3 K	0.0136
in ethanol, 317.15 K	0.0161
in ethanol, 323.3 K	0.0203
in ethyl acetate, 278.3 K	0.0037
in ethyl acetate, 283.01 K	0.0044
in ethyl acetate, 288.05 K	0.0052
in ethyl acetate, 293.15 K	0.0061
in ethyl acetate, 298 K	0.0072
in ethyl acetate, 303.13 K	0.0083
in ethyl acetate, 308.07 K	0.0099
in ethyl acetate, 313.15 K	0.0116
in ethyl acetate, 318.06 K	0.0133
in ethyl acetate, 323.37 K	0.0157
in isobutanol, 277.9 K	0.0015
in isobutanol, 283.25 K	0.002
in isobutanol, 288.15 K	0.0026
in isobutanol, 293.04 K	0.0032
in isobutanol, 298.15 K	0.0041
in isobutanol, 302.94 K	0.0052
in isobutanol, 308.1 K	0.0066
in isobutanol, 313.15 K	0.0083
in isobutanol, 318.01 K	0.0105
in isobutanol, 323.33 K	0.0132
in isopropanol, 278.37 K	0.0024
in isopropanol, 283.05 K	0.003
in isopropanol, 288.39 K	0.0039
in isopropanol, 294.07 K	0.0051
in isopropanol, 299 K	0.0063
in isopropanol, 303.17 K	0.0074
in isopropanol, 308.27 K	0.0095
in isopropanol, 313.13 K	0.0118
in isopropanol, 318.15 K	0.015
in isopropanol, 323.2 K	0.0183
in methyl acetate, 278.3 K	0.0042
in methyl acetate, 283.01 K	0.0049
in methyl acetate, 288.05 K	0.0058
in methyl acetate, 293.15 K	0.0068
in methyl acetate, 298 K	0.008
in methyl acetate, 303.13 K	0.0095
in methyl acetate, 308.07 K	0.0111
in methyl acetate, 313.15 K	0.0131
in methyl acetate, 318.06 K	0.0152
in methyl acetate, 323.37 K	0.0177
in n-butanol, 277.9 K	0.0025
in n-butanol, 283.25 K	0.003
in n-butanol, 288.15 K	0.0037
in n-butanol, 293.04 K	0.0046
in n-butanol, 298.15 K	0.0057
in n-butanol, 302.94 K	0.007
in n-butanol, 308.1 K	0.0089
in n-butanol, 313.15 K	0.011
in n-butanol, 318.01 K	0.0134
in n-butanol, 323.33 K	0.0168
in n-propanol, 278.37 K	0.0027
in n-propanol, 283.05 K	0.0033
in n-propanol, 288.39 K	0.0042
in n-propanol, 293.3 K	0.0051
in n-propanol, 299 K	0.0066
in n-propanol, 303.17 K	0.0079
in n-propanol, 308.27 K	0.0097
in n-propanol, 313.13 K	0.0118
in n-propanol, 318.15 K	0.0146
in n-propanol, 323.2 K	0.0177

O=C(O)c1cc(O)c(O)c(O)c1
in water
Settings	solubility (mole fraction)
292.18 K	0.00098
298 K	0.0011
303.09 K	0.00142
308.21 K	0.0019
313.04 K	0.00244
318.15 K	0.00328
323.15 K	0.00427
327.85 K	0.00523
333.15 K	0.00693
